Experimental findings from patent US20100331368A1, “2,5-DIARYL SELENOPHENE COMPOUNDS, AZA 2,5-DIARYL THIOPHENE COMPOUNDS, AND THEIR PRODRUGS AS ANTIPROTOZOAL AGENTS” (priority 2007, published 2010) are described below.

Where a name gives a salt, the structure may show the parent alone. Read-outs that look alike come from different tables or passages of the source.

The subject of data set [1] is Leishmania donovani (L. d.). Briefly: In vitro assay against Leishmania donovani. In kind it is cell-based. The protocol:
(§1) In vitro antiprotozoal activities were measured following established protocols. […] E., et al., Bioorg.

For data set [2], the system named is Trypanosoma brucei rhodesiense (T. b. r.). As to the kind of experiment: In vitro antiprotozoal activity against Trypanosoma brucei rhodesiense. In kind it is cell-based. The protocol:
as §1

The subject of data set [3] is L-6 rat mycoblast cells. As to the kind of experiment: Cell toxicity assay in L-6 cells.
For data set [4], the system named is Plasmodium falciparum (P. f.). Briefly: In vitro antiprotozoal activity against Plasmodium falciparum. In kind it is cell-based. The protocol: as §1
Data set [5] relates to STIB 900 strain of Trypanosoma brucei rhodesiense. Briefly: In vivo activity against T. b. r. STIB 900 in a mouse model. The conditions noted are these: for responders at 20 mg/kg / responders at 25 mg/kg / responders at 5 mg/kg: Trypanosoma brucei, 1440 h, read-out: Cures (number of mice that survive and are parasite free for 60 days); for Survival (average days of survival) / Cures (number of mice that survive and are parasite free for 60 days): mouse, days 3-6 post-infection; for Survival (average days of survival): untreated controls expire between 7 and 8 days; for Cures (number of mice that survive and are parasite free for 60 days): groups of four mice. The protocol: The activities of compounds 4, 5, 6, 11, 12, 18, 20, 22, 27, 28, 30 and 33 against the STIB 900 strain of Trypanosoma brucei rhodesiense (T. b. r.) in a mouse model are shown in Table 2. […] Groups of four mice were infected intraperitoneally with 2×10^5 bloodstream forms of T. b. r. STIB 900 which originates from a patient in Tanzania. On days 3, 4, 5, and 6 post-infection the experimental groups were treated with the drugs either by the intraperitoneal or for prodrugs by the oral route. Usually the highest tolerated dose was used which was determined in a pretoxicological experiment. Parasitemia of the mice was checked daily up to day 14 post-infection and thereafter 2 times per week up to day 60. One group of mice was not treated and acted as control. For relapsing mice, the day of death was recorded and the survival time determined.

Data set [6] concerns L-6 rat mycoblast cells.
Where [7] appears, read: Leishmania donovani, in vitro, read-out: IC50 values versus L.d.
Where [8] appears, read: Leishmania donovani, in vitro, read-out: L.d. C50.
[9] abbreviates: Trypanosoma brucei, RHODESIENSE, in vitro, read-out: IC50 values versus T.b.r.
[10] abbreviates: Trypanosoma brucei, RHODESIENSE, in vitro, read-out: T.b.r. IC50.
Setting [11] is: Plasmodium falciparum, in vitro, read-out: IC50 values versus P.f.
[12] abbreviates: Plasmodium falciparum, in vitro, read-out: P.f. IC50.
Setting [13] is: in vitro, read-out: T.b.r. IC50.

Turning to `Cl.Cl.N=C(N)c1ccc(-c2ccc(-c3ccc(C(=N)N)cc3)[se]2)cc1` [Compound 4, 2,5-Bis(4-amidinophenyl)selenophene Dihydrochloride], the IC50 in data set [1] (Leishmania donovani, read-out: IC50 values versus L.d.) was less than 200 nM; in data set [1] (Leishmania donovani, read-out: L.d. C50), 170 nM; in data set [2] (Trypanosoma brucei, RHODESIENSE, read-out: IC50 values versus T.b.r.), no more than 26 nM; in data set [2] (Trypanosoma brucei, RHODESIENSE, read-out: T.b.r. IC50) it was 2 nM; in data set [4] (Plasmodium falciparum, read-out: IC50 values versus P.f.) it was no more than 14 nM; in data set [4] (Plasmodium falciparum, read-out: P.f. IC50), 2 nM. This compound gave a Cytotoxocity in data set [3] of 9.7 µM. For the same compound, the responders at 20 mg/kg in data set [5] (ip) was 50%. Besides, the “Survival (average days of survival)” value in data set [5] (ip, 20 mg/kg) is on record as 55.5 days.

As to `Cl.Cl.N=C(NO)c1ccc(-c2ccc(-c3ccc(C(=N)NO)cc3)[se]2)cc1` [Compound 5, 2,5-Bis[4-(N-hydroxyamidino)phenyl]selenophene Dihydrochloride], in data set [5] (po), the responders at 25 mg/kg turned out to be 0%. The “Survival (average days of survival)” value in data set [5] (po, 25 mg/kg) is 11.5 days.

With `CONC(=N)c1ccc(-c2ccc(-c3ccc(C(=N)NOC)cc3)[se]2)cc1.Cl.Cl` [Compound 6, 2,5-Bis[4-(N-methoxyamidino)phenyl]selenophene Dihydrochloride], the responders at 25 mg/kg in data set [5] (po) was determined as 0%. Further, the “Survival (average days of survival)” value in data set [5] (po, 25 mg/kg) was found to be 15.25 days.

Regarding `N=C(N)c1ccc(-c2ccc(-c3ccc(C(=N)N)cn3)[se]2)cc1` [Compound 11, 6-[5-(4-Amidinophenyl)-selenophen-2-yl]-nicotinamidine], the IC50 in data set [1] (setting [7]) was 1600 nM; in data set [1] (setting [8]), 1600 nM; in data set [2] (setting [9]) it was no more than 26 nM; in data set [2] (setting [10]) it was 9 nM; in data set [4] (setting [11]) it was no more than 14 nM; in data set [4] (setting [12]), 10 nM. Further, the Cytotoxocity in data set [3] was found to be 27.7 µM. Moreover, the responders at 5 mg/kg in data set [5] (ip) is 100%. Also, the “Survival (average days of survival)” value in data set [5] (ip, 5 mg/kg) amounted to 60 days.

`N/C(=N\O)c1ccc(-c2ccc(-c3ccc(/C(N)=N/O)cn3)[se]2)cc1` [Compound 12]: the responders at 25 mg/kg in data set [5] (po) turned out to be 0%. For the same compound, the “Survival (average days of survival)” value in data set [5] (po, 25 mg/kg) was 26 days.

For `N=C(N)c1ccc(-c2ccc(-c3ccc(C(=N)N)nc3)[se]2)cc1` [Compound 18, 5-[5-(4-Amidinophenyl)-selenophen-2-yl]-pyridine-2-amidine], the IC50 is less than 200 nM in data set [1] (setting [7]); 130 nM in data set [1] (setting [8]); no more than 26 nM in data set [2] (setting [9]); 26 nM in data set [2] (setting [10]); no more than 14 nM in data set [4] (setting [11]); 14 nM in data set [4] (setting [12]). In data set [3], this compound had a Cytotoxocity of 13.4 µM. In addition, the responders at 5 mg/kg in data set [5] (ip) was 100%. Also, in data set [5] (ip, 5 mg/kg), the “Survival (average days of survival)” value was 60 days.

As to `CO/N=C(\N)c1ccc(-c2ccc(-c3ccc(/C(N)=N/OC)nc3)[se]2)cc1` [Compound 20, 5-{5-[4-(N-Methoxyamidino)-phenyl]-selenophen-2-yl}-pyridine-2-N-methoxyamidine], the responders at 25 mg/kg in data set [5] (po) was 25%. Moreover, the “Survival (average days of survival)” value in data set [5] (po, 25 mg/kg) was found to be 36.5 days.

As for `N=C(N)c1ccc(-c2ccc(-c3ccc(C(=N)N)nc3)[se]2)cn1` [Compound 22, 2,5-Bis-[5-(2-amidino-pyridyl)]selenophene dihydrochloride], the IC50 was less than 200 nM in data set [1] (setting [7]); 53 nM in data set [1] (setting [8]); no more than 26 nM in data set [2] (setting [9]); 2 nM in data set [2] (setting [10]); no more than 14 nM in data set [4] (setting [11]); 4 nM in data set [4] (setting [12]). This compound also showed a Cytotoxocity in data set [3] of 5.6 µM. Besides, in data set [5] (ip), the responders at 5 mg/kg is 100%. Also, the “Survival (average days of survival)” value in data set [5] (ip, 5 mg/kg) is given as 60 days.

As to `N=C(N)c1ccc(-c2ccc(-c3ccc(C(=N)N)cn3)[se]2)nc1` [Compound 27, 2,5-Bis-[2-(5-amidino-pyridyl)]selenophene dihydrochloride], the IC50 in data set [1] (setting [8]) is 5600 nM; in data set [2] (setting [10]) it was 50 nM; in data set [4] (setting [11]), no more than 14 nM; in data set [4] (setting [12]), 10 nM. In data set [3], this compound gave a Cytotoxocity of 158.3 µM. The responders at 5 mg/kg in data set [5] (ip) was 100%. Moreover, the “Survival (average days of survival)” value in data set [5] (ip, 5 mg/kg) was 60 days.

Consider `NC(=NO)c1ccc(-c2ccc(-c3ccc(C(N)=NO)cn3)[se]2)nc1` [Compound 28, 2,5-Bis-[2-{5-(N-hydroxyamidino)-pyridyl}]selenophene dihydrochloride], for which the responders at 25 mg/kg in data set [5] (po) was 0%. Also, the “Survival (average days of survival)” value in data set [5] (po, 25 mg/kg) stood at 20 days.

`Cl.Cl.N=C(N)c1ccc(-c2ccc(-c3ccc(C(=N)N)cn3)s2)nc1` [Compound 30, 2,5-Bis-[2-(5-amidino-pyridyl)]thiophene dihydrochloride] had a Cytotoxocity in data set [6] greater than 222 µM. For the same compound, the IC50 was 23300 nM in data set [1] (in vitro, read-out: L.d. C50); 68 nM in data set [2] (setting [13]); 18 nM in data set [4] (in vitro, read-out: P.f. IC50). In addition, in data set [5] (ip, 5 mg/kg), the “Cures (number of mice that survive and are parasite free for 60 days)” value was 1/4. Further, the “Survival (average days of survival)” value in data set [5] (ip, 5 mg/kg) came out at 50.25 days.

Regarding `Cl.Cl.N=C(N)c1ccc(-c2ccc(-c3ccc(C(=N)N)nc3)s2)cn1` [Compound 33, 2,5-Bis-[5-(2-amidino-pyridyl)]thiophene dihydrochloride], in data set [6], the Cytotoxocity was found to be 4.8 µM. For the same compound, the IC50 in data set [1] (in vitro, read-out: L.d. C50) worked out at 127 nM; in data set [2] (setting [13]), 4 nM; in data set [4] (in vitro, read-out: P.f. IC50), 3 nM. Moreover, the “Cures (number of mice that survive and are parasite free for 60 days)” value in data set [5] (ip, 5 mg/kg) is reported as 1/4. Also, the “Survival (average days of survival)” value in data set [5] (ip, 5 mg/kg) is 42.5 days.

For `N=C(N)c1ccc(-c2ccc(-c3ccc(C(=N)N)cc3)o2)cc1` [Furamidine, reference compound], the IC50 in data set [1] (in vitro, read-out: L.d. C50) worked out at 2700 nM. The IC50 in data set [2] (setting [13]) amounted to 4.3 nM. Further, in data set [3], the Cytotoxocity came out at 6.4 µM. Moreover, in data set [5] (ip, 10 mg/kg), the “Cures (number of mice that survive and are parasite free for 60 days)” value is on record as 0/4; the “Survival (average days of survival)” value turned out to be 44.5 days.

Take `N=C(N)c1ccc(OCCCCCOc2ccc(C(=N)N)cc2)cc1` [Pentamidine, reference compound]: the IC50 in data set [1] (setting [8]) was determined as 2000 nM. Moreover, in data set [5] (ip), the responders at 20 mg/kg came to 0%. Besides, the “Survival (average days of survival)” value in data set [5] (ip, 20 mg/kg) came to 42.75 days.
